Data published in the supplement of paper PMC4862054.

Columns and labels:
Assay in all cases: normalised viability (% of control), CellTiter-Blue; higher = more viable cells (about 100 = DMSO control)
Details in all cases: incubation time: 72 h
DU-4475 [1] = test system: DU-4475
Procedure, shortened: (§1)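 Breast cancer cell lines were treated for 72 h in 384-well format and measured by CellTiter-Blue fluorescence at 560/590 nm. Results were normalised per plate to vehicle (100) and a positive kill control (0). The entry is normalised viability at a single listed concentration of the series.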

CAL-148 [2] = test system: CAL-148
Procedure, shortened: as §1

CAL-51 [3] = test system: CAL-51
Procedure, shortened: as §1

MDA-MB-231 = test system: MDA-MB-231
Procedure, shortened: as §1

HCC1599 [4] = test system: HCC1599
Procedure, shortened: as §1

HCC1937 [5] = test system: HCC1937
Procedure, shortened: as §1

BT-549 [6] = test system: BT-549
Procedure, shortened: as §1

MFM-223 [7] = test system: MFM-223
Procedure, shortened: as §1

HCC1143 [8] = test system: HCC1143
Procedure, shortened: as §1

MDA-MB-436 [9] = test system: MDA-MB-436
Procedure, shortened: as §1

CAL-120 = test system: CAL-120
Procedure, shortened: as §1

DU-4475 [10] = test system: DU-4475; remark: listed apart in the source
Procedure, shortened: as §1

CAL-148 [11] = test system: CAL-148; remark: listed apart in the source
Procedure, shortened: as §1

CAL-51 [12] = test system: CAL-51; remark: listed apart in the source
Procedure, shortened: as §1

HDQ-P1 = test system: HDQ-P1
Procedure, shortened: as §1

HCC1599 [13] = test system: HCC1599; remark: listed apart in the source
Procedure, shortened: as §1

HCC1937 [14] = test system: HCC1937; remark: listed apart in the source
Procedure, shortened: as §1

BT-549 [15] = test system: BT-549; remark: listed apart in the source
Procedure, shortened: as §1

Hs578T = test system: Hs578T
Procedure, shortened: as §1

MFM-223 [16] = test system: MFM-223; remark: listed apart in the source
Procedure, shortened: as §1

BT-474 = test system: BT-474
Procedure, shortened: as §1

CAL-85-1 = test system: CAL-85-1
Procedure, shortened: as §1

HCC1143 [17] = test system: HCC1143; remark: listed apart in the source
Procedure, shortened: as §1

SK-BR-3 = test system: SK-BR-3
Procedure, shortened: as §1

MDA-MB-453 = test system: MDA-MB-453
Procedure, shortened: as §1

MDA-MB-436 [18] = test system: MDA-MB-436; remark: listed apart in the source
Procedure, shortened: as §1

MDA-MB-468 = test system: MDA-MB-468
Procedure, shortened: as §1

CCS(=O)(=O)c1cccc(-c2cc(C(=O)NC3CCN(C)CC3)c(C)c3[nH]c4ncc(C)cc4c23)c1 [TAK-901]
Details | normalised viability [%]
BT-474, 1 nM | 131
BT-474, 100 nM | 107
BT-474, 1000 nM | 78.6
BT-549 [6], 10 nM | 114
BT-549 [15], 1 nM | 94.6
BT-549 [15], 100 nM | 71.2
BT-549 [15], 1000 nM | 20.1
CAL-51 [3], 1 nM | 91.7
CAL-51 [12], 0.3 nM | 98
CAL-51 [12], 3 nM | 92.8
CAL-51 [12], 10 nM | 92.1
CAL-85-1, 0.3 nM | 89.9
CAL-85-1, 3 nM | 86.3
CAL-85-1, 10 nM | 91.2
CAL-120, 1 nM | 84.4
CAL-120, 100 nM | 50.5
CAL-120, 1000 nM | 13.2
CAL-148 [2], 1 nM | 113
CAL-148 [11], 0.3 nM | 90.1
CAL-148 [11], 3 nM | 95.3
CAL-148 [11], 10 nM | 101
DU-4475 [1], 1 nM | 97
DU-4475 [10], 0.3 nM | 94.7
DU-4475 [10], 3 nM | 88.1
DU-4475 [10], 10 nM | 101
HCC1143 [8], 10 nM | 87.6
HCC1143 [17], 1 nM | 87.3
HCC1143 [17], 100 nM | 64.2
HCC1143 [17], 1000 nM | 27.1
HCC1599 [4], 10 nM | 103
HCC1599 [13], 1 nM | 93.6
HCC1599 [13], 100 nM | 83
HCC1599 [13], 1000 nM | 61.4
HCC1937 [5], 10 nM | 120
HCC1937 [14], 1 nM | 116
HCC1937 [14], 100 nM | 80.7
HCC1937 [14], 1000 nM | 35.2
HDQ-P1, 0.3 nM | 111
HDQ-P1, 3 nM | 109
HDQ-P1, 10 nM | 113
Hs578T, 1 nM | 124
Hs578T, 100 nM | 78
Hs578T, 1000 nM | 40.5
MDA-MB-231, 10 nM | 103
MDA-MB-436 [9], 10 nM | 101
MDA-MB-436 [18], 1 nM | 116
MDA-MB-436 [18], 100 nM | 96.1
MDA-MB-436 [18], 1000 nM | 70.6
MDA-MB-453, 0.3 nM | 102
MDA-MB-453, 3 nM | 111
MDA-MB-453, 10 nM | 83.5
MDA-MB-468, 1 nM | 112
MDA-MB-468, 100 nM | 33.1
MDA-MB-468, 1000 nM | 63.6
MFM-223 [7], 10 nM | 81.8
MFM-223 [16], 1 nM | 96
MFM-223 [16], 100 nM | 55
MFM-223 [16], 1000 nM | 34
SK-BR-3, 1 nM | 98.9
SK-BR-3, 100 nM | 93.8
SK-BR-3, 1000 nM | 52

c1ccc(C2CN3CCSC3=N2)cc1 (stereo not drawn) [Tetramisole]
Details | normalised viability [%]
BT-474, 10 nM | 111
BT-474, 1000 nM | 137
BT-474, 10000 nM | 107
BT-549 [6], 100 nM | 83
BT-549 [15], 10 nM | 105
BT-549 [15], 1000 nM | 85.6
BT-549 [15], 10000 nM | 89.1
CAL-51 [3], 10 nM | 95.2
CAL-51 [12], 3 nM | 85.4
CAL-51 [12], 30 nM | 92.1
CAL-51 [12], 100 nM | 89.6
CAL-85-1, 3 nM | 104
CAL-85-1, 30 nM | 92.8
CAL-85-1, 100 nM | 99.4
CAL-120, 10 nM | 110
CAL-120, 1000 nM | 112
CAL-120, 10000 nM | 105
CAL-148 [2], 10 nM | 114
CAL-148 [11], 3 nM | 103
CAL-148 [11], 30 nM | 103
CAL-148 [11], 100 nM | 125
DU-4475 [1], 10 nM | 87.6
DU-4475 [10], 3 nM | 91.1
DU-4475 [10], 30 nM | 99.9
DU-4475 [10], 100 nM | 101
HCC1143 [8], 100 nM | 116
HCC1143 [17], 10 nM | 105
HCC1143 [17], 1000 nM | 118
HCC1143 [17], 10000 nM | 109
HCC1599 [4], 100 nM | 107
HCC1599 [13], 10 nM | 102
HCC1599 [13], 1000 nM | 91.2
HCC1599 [13], 10000 nM | 107
HCC1937 [5], 100 nM | 108
HCC1937 [14], 10 nM | 117
HCC1937 [14], 1000 nM | 105
HCC1937 [14], 10000 nM | 103
HDQ-P1, 3 nM | 117
HDQ-P1, 30 nM | 116
HDQ-P1, 100 nM | 109
Hs578T, 10 nM | 90.2
Hs578T, 1000 nM | 95.5
Hs578T, 10000 nM | 107
MDA-MB-231, 100 nM | 101
MDA-MB-436 [9], 100 nM | 108
MDA-MB-436 [18], 10 nM | 110
MDA-MB-436 [18], 1000 nM | 111
MDA-MB-436 [18], 10000 nM | 113
MDA-MB-453, 3 nM | 93.6
MDA-MB-453, 30 nM | 104
MDA-MB-453, 100 nM | 98.5
MDA-MB-468, 10 nM | 101
MDA-MB-468, 1000 nM | 106
MDA-MB-468, 10000 nM | 120
MFM-223 [7], 100 nM | 92.3
MFM-223 [16], 10 nM | 101
MFM-223 [16], 1000 nM | 96.4
MFM-223 [16], 10000 nM | 90.3
SK-BR-3, 10 nM | 107
SK-BR-3, 1000 nM | 101
SK-BR-3, 10000 nM | 105

CCCC(CCC)C(=O)O [Valproic acid]
Details | normalised viability [%]
BT-474, 10 nM | 113
BT-474, 1000 nM | 124
BT-474, 10000 nM | 121
BT-549 [6], 100 nM | 92
BT-549 [15], 10 nM | 78.7
BT-549 [15], 1000 nM | 93.1
BT-549 [15], 10000 nM | 86.2
CAL-51 [3], 10 nM | 97.8
CAL-51 [12], 3 nM | 104
CAL-51 [12], 30 nM | 95.1
CAL-51 [12], 100 nM | 96.5
CAL-85-1, 3 nM | 86.4
CAL-85-1, 30 nM | 84.7
CAL-85-1, 100 nM | 96.6
CAL-120, 10 nM | 104
CAL-120, 1000 nM | 104
CAL-120, 10000 nM | 93.9
CAL-148 [2], 10 nM | 106
CAL-148 [11], 3 nM | 99.9
CAL-148 [11], 30 nM | 97.9
CAL-148 [11], 100 nM | 109
DU-4475 [1], 10 nM | 93.7
DU-4475 [10], 3 nM | 88.6
DU-4475 [10], 30 nM | 81.7
DU-4475 [10], 100 nM | 76.3
HCC1143 [8], 100 nM | 94.9
HCC1143 [17], 10 nM | 110
HCC1143 [17], 1000 nM | 104
HCC1143 [17], 10000 nM | 94.4
HCC1599 [4], 100 nM | 102
HCC1599 [13], 10 nM | 97.4
HCC1599 [13], 1000 nM | 90.7
HCC1599 [13], 10000 nM | 82
HCC1937 [5], 100 nM | 98.8
HCC1937 [14], 10 nM | 126
HCC1937 [14], 1000 nM | 86
HCC1937 [14], 10000 nM | 92.6
HDQ-P1, 3 nM | 124
HDQ-P1, 30 nM | 116
HDQ-P1, 100 nM | 122
Hs578T, 10 nM | 110
Hs578T, 1000 nM | 140
Hs578T, 10000 nM | 127
MDA-MB-231, 100 nM | 110
MDA-MB-436 [9], 100 nM | 95.4
MDA-MB-436 [18], 10 nM | 96.6
MDA-MB-436 [18], 1000 nM | 89
MDA-MB-436 [18], 10000 nM | 132
MDA-MB-453, 3 nM | 112
MDA-MB-453, 30 nM | 102
MDA-MB-453, 100 nM | 109
MDA-MB-468, 10 nM | 105
MDA-MB-468, 1000 nM | 117
MDA-MB-468, 10000 nM | 121
MFM-223 [7], 100 nM | 94.9
MFM-223 [16], 10 nM | 103
MFM-223 [16], 1000 nM | 87.2
MFM-223 [16], 10000 nM | 97.3
SK-BR-3, 10 nM | 102
SK-BR-3, 1000 nM | 107
SK-BR-3, 10000 nM | 95.9
